According to patent US8518932B2, “Oxime azetidine derivatives as sphingosine 1-phosphate (S1P) receptor modulators” (Allergan, Inc., priority 2010, dated 2013):

Target: T1, human S1P1 receptor (Homo sapiens, UniProt P21453)
T1 construct: expressed in transfected cells; membranes used
Test: GTP γ35S binding assay for S1P1 activity
Format: biochemical
Conditions: membranes of cells stably expressing the S1P1 receptor, test compounds 0.08 to 5,000 nM, 30 min at 25° C.
Procedure: Compounds were synthesized and tested for S1P1 activity using the GTP γ^35S binding assay. These compounds may be assessed for their ability to activate or block activation of the human S1P1 receptor in cells stably expressing the S1P1 receptor.
GTP γ^35S binding was measured in the medium containing (mM) HEPES 25, pH 7.4, MgCl2 10, NaCl 100, dithitothreitol 0.5, digitonin 0.003%, 0.2 nM GTP γ^35S, and 5 μg membrane protein in a volume of 150 μl. Test compounds were included in the concentration range from 0.08 to 5,000 nM unless indicated otherwise. Membranes were incubated with 100 μM 5′-adenylylimmidodiphosphate for 30 min, and subsequently with 10 μM GDP for 10 min on ice. Drug solutions and membrane were mixed, and then reactions were initiated by adding GTP γ^35S and continued for 30 min at 25° C. Reaction mixtures were filtered over Whatman GF/B filters under vacuum, and washed three times with 3 mL of ice-cold buffer (HEPES 25, pH7.4, MgCl2 10 and NaCl 100). Filters were dried and mixed with scintillant, and counted for ^35S activity using a β-counter. Agonist-induced GTP γ^35S binding was obtained by subtracting that in the absence of agonist. Binding data were analyzed using a non-linear regression method. In case of antagonist assay, the reaction mixture contained 10 nM S1P in the presence of test antagonist at concentrations ranging from 0.08 to 5000 nM.

T1 sequence (P21453 whole entry): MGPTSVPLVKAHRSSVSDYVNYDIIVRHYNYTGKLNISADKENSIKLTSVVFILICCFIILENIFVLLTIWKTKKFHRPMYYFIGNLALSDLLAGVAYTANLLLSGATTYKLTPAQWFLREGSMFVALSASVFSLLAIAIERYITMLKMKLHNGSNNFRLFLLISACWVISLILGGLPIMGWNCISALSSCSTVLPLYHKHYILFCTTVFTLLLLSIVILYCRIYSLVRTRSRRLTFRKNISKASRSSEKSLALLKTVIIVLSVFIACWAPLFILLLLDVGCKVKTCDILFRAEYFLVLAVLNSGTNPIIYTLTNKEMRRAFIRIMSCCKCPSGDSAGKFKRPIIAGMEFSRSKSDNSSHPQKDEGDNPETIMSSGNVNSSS

SMILES	EC50
C/C(=N\OCc1ccc(CN2CC(C(=O)O)C2)cc1)C(Cc1ccc(C)c(C)c1)c1cccc(Cl)c1 (centres unmarked) [Compound 3, 1-{4-[({[(1E)-2-(3-chlorophenyl)-3-(3,4-dimethylphenyl)-1-methylpropylidene]amino}oxy)methyl]benzyl}azetidine-3-carboxylic acid]	230 nM
C/C(=N\OCC(Oc1ccc(C)c(C)c1)c1cccc(Cl)c1)c1ccc(CN2CC(C(=O)O)C2)cc1 (centres unmarked) [Compound 8, 1-(4-{(1E)-N-[2-(3-chlorophenyl)-2-(3,4-dimethylphenoxy)ethoxy]ethanimidoyl}benzyl)azetidine-3-carboxylic acid]	163 nM

These reach a lower EC50. Values come first.

EC50	SMILES
17.5 nM	C/C(=N\OCc1ccc(CN2CC(C(=O)O)C2)cc1)C(Cc1ccc(C)c(C)c1)c1cc(F)cc(F)c1 (centres unmarked) [Compound 4, 1-{4-[({[(1E)-2-(3,5-difluorophenyl)-3-(3,4-dimethylphenyl)-1-methylpropylidene]amino}oxy)methyl]benzyl}azetidine-3-carboxylic acid]
16.5 nM	C/C(=N\OCC(Cc1ccc(C)c(C)c1)c1cccc(C)c1)c1ccc(CN2CC(C(=O)O)C2)cc1 (centres unmarked) [Compound 1, 1-(4-{(1E)-N-[2-(3-methylphenyl)-3-(3,4-dimethylphenyl)propoxy]ethanimidoyl}benzyl)azetidine-3-carboxylic acid]
9.05 nM	C/C(=N\OCC(Cc1ccc(C)c(C)c1)c1cccc(Cl)c1)c1ccc(CN2CC(C(=O)O)C2)cc1 (centres unmarked) [Compound 2, 1-(4-{(1E)-N-[2-(3-chlorophenyl)-3-(3,4-dimethylphenyl)propoxy]ethanimidoyl}benzyl)azetidine-3-carboxylic acid]
